# Results reported in ChEMBL document CHEMBL1146693, “Design and SAR of thienopyrimidine and thienopyridine inhibitors of VEGFR-2 kinase activity” (Bioorg Med Chem Lett, 2004).
# Where “and” joins values, the source holds several entries; their conditions need not be identical. Equal entries are not always repeated.
# Molecular target: Epidermal growth factor receptor (Homo sapiens, UniProt P00533)
# Experiment: Inhibitory activity against epidermal growth factor receptor
# Chain of Epidermal growth factor receptor (P00533 whole entry): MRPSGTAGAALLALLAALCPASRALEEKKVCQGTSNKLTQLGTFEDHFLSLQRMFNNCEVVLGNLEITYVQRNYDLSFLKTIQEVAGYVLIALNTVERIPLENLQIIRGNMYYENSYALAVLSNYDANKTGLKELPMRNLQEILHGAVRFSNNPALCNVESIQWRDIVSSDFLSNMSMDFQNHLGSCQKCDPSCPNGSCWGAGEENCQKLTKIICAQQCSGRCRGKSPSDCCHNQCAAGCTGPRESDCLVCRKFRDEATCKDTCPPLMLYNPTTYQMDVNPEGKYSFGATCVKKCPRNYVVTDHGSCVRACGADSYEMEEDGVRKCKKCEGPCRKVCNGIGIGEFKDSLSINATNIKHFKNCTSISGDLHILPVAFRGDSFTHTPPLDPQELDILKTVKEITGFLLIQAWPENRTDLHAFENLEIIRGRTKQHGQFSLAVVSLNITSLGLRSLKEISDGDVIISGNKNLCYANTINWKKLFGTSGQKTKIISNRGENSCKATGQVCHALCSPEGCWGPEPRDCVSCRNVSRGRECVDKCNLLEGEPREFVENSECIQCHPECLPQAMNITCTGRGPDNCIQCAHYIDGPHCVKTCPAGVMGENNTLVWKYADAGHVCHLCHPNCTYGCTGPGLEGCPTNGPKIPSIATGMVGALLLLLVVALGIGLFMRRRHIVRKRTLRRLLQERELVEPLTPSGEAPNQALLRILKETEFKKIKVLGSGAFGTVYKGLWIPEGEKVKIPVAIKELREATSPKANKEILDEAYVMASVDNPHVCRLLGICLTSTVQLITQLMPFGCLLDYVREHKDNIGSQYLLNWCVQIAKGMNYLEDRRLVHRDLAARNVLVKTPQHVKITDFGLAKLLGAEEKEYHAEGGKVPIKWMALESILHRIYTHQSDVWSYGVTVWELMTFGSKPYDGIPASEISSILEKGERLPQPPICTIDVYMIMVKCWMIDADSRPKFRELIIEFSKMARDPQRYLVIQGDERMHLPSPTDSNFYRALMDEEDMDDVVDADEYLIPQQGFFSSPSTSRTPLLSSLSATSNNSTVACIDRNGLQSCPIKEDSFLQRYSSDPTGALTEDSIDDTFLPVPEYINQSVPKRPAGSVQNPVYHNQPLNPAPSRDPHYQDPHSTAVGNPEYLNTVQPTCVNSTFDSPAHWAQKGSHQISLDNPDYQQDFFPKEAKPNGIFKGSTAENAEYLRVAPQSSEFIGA
row,SMILES,IC50
1,Cc1c[nH]c2ccc(Nc3ncnc4cc(-c5ccccc5)sc34)cc12,5 nM
2,c1csc(-c2cc3nccc(Nc4ccc5[nH]ccc5c4)c3s2)c1,1 nM
3,NC(=O)C1CCN(Cc2ccc(-c3cc4ncnc(Nc5ccc6[nH]ccc6c5)c4s3)cc2)CC1,7 nM
4,c1cc(Nc2ccc3[nH]ccc3c2)c2sc(-c3ccc(CN4CCOCC4)cc3)cc2n1,30 nM
5,OCc1ccc(-c2cc3ncnc(Nc4ccc5[nH]ccc5c4)c3s2)cc1,1 nM
6,c1ccc(CCCN(c2cc3ncnc(Nc4ccc5[nH]ccc5c4)c3s2)n2ccnc2)cc1,5 nM and 1 nM
7,NC(=O)C1CCN(Cc2ccc(-c3cc4nccc(Nc5ccc6[nH]ccc6c5)c4s3)cc2)CC1,1 nM
8,c1nc(Nc2ccc3[nH]ccc3c2)c2sccc2n1,600 nM
9,NCc1ccc(-c2cc3ncnc(Nc4ccc5[nH]ccc5c4)c3s2)cc1,4 nM
10,c1ccc(-c2cc3ncnc(Nc4ccc5[nH]ncc5c4)c3s2)cc1,1600 nM
11,c1ccc(NCCN(c2cc3ncnc(Nc4ccc5[nH]ccc5c4)c3s2)n2cccc2)cc1,1 nM
12,NC(=O)c1ccc(Nc2ncnc3cc(-c4ccccc4)sc23)cc1,> 1000 nM

# The next lines start with the values.
row,IC50,SMILES
1,1 nM and 8 nM,CC(C)(CO)NCc1ccc(-c2cc3ncnc(Nc4ccc5[nH]ccc5c4)c3s2)cc1
2,2 nM,OCCNCc1ccc(-c2cc3nccc(Nc4ccc5[nH]ccc5c4)c3s2)cc1
3,1250 nM,Cc1cc2cc(Nc3ccnc4cc(-c5ccc(CN6CCOCC6)cc5)sc34)ccc2[nH]1
4,2 nM,CC(=O)NCCNCc1ccc(-c2cc3nccc(Nc4ccc5[nH]ccc5c4)c3s2)cc1
5,657 nM,Cc1cc2cc(Nc3ccnc4cc(-c5ccc(CNCCOCCO)cc5)sc34)ccc2[nH]1
6,9 nM,OCCCNCc1ccc(-c2cc3nccc(Nc4ccc5[nH]ccc5c4)c3s2)cc1
7,500 nM,Cc1cc2cc(Nc3ccnc4cc(-c5ccc(CNCCCO)cc5)sc34)ccc2[nH]1
8,3 nM,CN(CCO)Cc1ccc(-c2cc3nccc(Nc4ccc5[nH]ccc5c4)c3s2)cc1
9,1000 nM,Cc1cc2cc(Nc3ccnc4cc(-c5ccc(CNCCO)cc5)sc34)ccc2[nH]1
10,100 nM,Cc1cc2cc(Nc3ncnc4cc(-c5ccccc5)sc34)ccc2[nH]1
11,3 nM,c1cc(Nc2ccc3[nH]ccc3c2)c2sc(-c3ccc(CNCCN4CCNCC4)cc3)cc2n1
12,5 nM,CC(=O)NCCNCc1ccc(-c2cc3ncnc(Nc4ccc5[nH]ccc5c4)c3s2)cc1
13,140 nM,Cc1cc2cc(Nc3ccnc4cc(-c5ccc(CN(C)CCO)cc5)sc34)ccc2[nH]1
